Active and inactive are the calls of the source. No cut-off for these calls is given here.
Legend:
[1] = Clearance in cynomolgus monkey at 1 mg/kg, iv measured up to 24 hrs by LC-MS/MS analysis; type: ADME, organism-based, Macaca fascicularis; conditions: in vivo
[2] = AUClast in male C57BL/6 mouse at 10 mg/kg, po measured up to 24 hrs by LC-MS/MS analysis; type: ADME, organism-based; conditions: in vivo
[3] = target: T1, Protein cereblon/Interleukin-1 receptor-associated kinase 4 (Mus musculus, UniProt Q8C7D2+Q8R4K2); assay: PROTAC activity at CRBN/IRAK4 in mouse PBMC cells assessed as induction of IRAK4 degradation incubated for 24 hrs by HiBiT lytic reagent based analysis; type: cell-based
T1 sequence (Q8C7D2 whole entry): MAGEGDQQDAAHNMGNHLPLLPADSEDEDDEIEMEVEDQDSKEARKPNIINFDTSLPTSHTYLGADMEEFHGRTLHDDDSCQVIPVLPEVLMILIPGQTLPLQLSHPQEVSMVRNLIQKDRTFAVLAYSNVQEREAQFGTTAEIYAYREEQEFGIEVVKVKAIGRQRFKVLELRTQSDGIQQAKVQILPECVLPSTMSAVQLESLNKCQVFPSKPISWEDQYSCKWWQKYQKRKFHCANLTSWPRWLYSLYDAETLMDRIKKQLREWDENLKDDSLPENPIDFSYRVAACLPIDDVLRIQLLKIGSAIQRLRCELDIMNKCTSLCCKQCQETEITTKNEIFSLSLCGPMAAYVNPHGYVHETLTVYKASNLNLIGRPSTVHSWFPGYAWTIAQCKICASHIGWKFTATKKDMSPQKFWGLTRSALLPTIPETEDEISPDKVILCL
T1 sequence (Q8R4K2 whole entry): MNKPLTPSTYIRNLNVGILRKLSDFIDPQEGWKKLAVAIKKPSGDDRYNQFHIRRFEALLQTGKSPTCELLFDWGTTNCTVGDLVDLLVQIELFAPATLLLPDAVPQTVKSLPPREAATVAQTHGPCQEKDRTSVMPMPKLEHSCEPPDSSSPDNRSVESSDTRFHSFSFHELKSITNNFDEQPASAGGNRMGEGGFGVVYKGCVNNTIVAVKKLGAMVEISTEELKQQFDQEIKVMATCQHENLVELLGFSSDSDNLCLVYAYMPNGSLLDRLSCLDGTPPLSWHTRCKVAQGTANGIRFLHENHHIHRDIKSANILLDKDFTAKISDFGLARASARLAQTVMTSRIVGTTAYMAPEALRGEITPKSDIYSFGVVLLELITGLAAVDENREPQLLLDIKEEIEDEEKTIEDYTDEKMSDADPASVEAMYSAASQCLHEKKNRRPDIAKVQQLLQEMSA

CYP3A4 [4] = target: T2, CYP3A4 (Homo sapiens, UniProt P08684); assay: Inhibition of CYP3A4 in human liver microsome using testosterone as substrate at 10 uM preincubated for 5 mins followed by NADPH addition and measured after 10 mins by LC-MS/MS analysis relative to control; type: ADME; conditions: human liver microsomes, probe testosterone, time 15 min
T2 sequence (P08684 whole entry): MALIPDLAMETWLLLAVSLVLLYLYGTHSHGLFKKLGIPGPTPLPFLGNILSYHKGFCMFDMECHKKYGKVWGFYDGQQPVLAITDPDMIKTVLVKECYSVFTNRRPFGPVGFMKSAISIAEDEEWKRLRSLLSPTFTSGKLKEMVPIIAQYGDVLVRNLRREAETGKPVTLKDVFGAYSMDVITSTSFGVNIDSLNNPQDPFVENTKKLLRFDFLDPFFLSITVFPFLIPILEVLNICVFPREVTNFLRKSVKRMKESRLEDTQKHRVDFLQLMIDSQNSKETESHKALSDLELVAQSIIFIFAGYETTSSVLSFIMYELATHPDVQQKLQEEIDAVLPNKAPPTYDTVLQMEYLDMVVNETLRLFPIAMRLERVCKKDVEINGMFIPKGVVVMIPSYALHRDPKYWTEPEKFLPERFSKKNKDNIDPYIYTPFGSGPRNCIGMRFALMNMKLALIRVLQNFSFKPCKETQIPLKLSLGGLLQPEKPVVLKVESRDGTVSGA

Mus musculus [5] = assay: Anti-arthritic activity against collagen-induced arthritis DBA/1 mouse model assessed as improvement in delta paw volume at 100 mg/kg, po administered for 14 days […]; type: functional, organism-based; conditions: time 14.0 day
hERG (KCNH2) = hERG (KCNH2) (Homo sapiens, UniProt Q12809); assay: Inhibition of hERG expressed in HEK293 cells at 3 uM by manual patch clamp assay relative to control; type: toxicity, cell-based; conditions: HEK293 cells expressing hERG
hERG (KCNH2), sequence (Q12809 whole entry): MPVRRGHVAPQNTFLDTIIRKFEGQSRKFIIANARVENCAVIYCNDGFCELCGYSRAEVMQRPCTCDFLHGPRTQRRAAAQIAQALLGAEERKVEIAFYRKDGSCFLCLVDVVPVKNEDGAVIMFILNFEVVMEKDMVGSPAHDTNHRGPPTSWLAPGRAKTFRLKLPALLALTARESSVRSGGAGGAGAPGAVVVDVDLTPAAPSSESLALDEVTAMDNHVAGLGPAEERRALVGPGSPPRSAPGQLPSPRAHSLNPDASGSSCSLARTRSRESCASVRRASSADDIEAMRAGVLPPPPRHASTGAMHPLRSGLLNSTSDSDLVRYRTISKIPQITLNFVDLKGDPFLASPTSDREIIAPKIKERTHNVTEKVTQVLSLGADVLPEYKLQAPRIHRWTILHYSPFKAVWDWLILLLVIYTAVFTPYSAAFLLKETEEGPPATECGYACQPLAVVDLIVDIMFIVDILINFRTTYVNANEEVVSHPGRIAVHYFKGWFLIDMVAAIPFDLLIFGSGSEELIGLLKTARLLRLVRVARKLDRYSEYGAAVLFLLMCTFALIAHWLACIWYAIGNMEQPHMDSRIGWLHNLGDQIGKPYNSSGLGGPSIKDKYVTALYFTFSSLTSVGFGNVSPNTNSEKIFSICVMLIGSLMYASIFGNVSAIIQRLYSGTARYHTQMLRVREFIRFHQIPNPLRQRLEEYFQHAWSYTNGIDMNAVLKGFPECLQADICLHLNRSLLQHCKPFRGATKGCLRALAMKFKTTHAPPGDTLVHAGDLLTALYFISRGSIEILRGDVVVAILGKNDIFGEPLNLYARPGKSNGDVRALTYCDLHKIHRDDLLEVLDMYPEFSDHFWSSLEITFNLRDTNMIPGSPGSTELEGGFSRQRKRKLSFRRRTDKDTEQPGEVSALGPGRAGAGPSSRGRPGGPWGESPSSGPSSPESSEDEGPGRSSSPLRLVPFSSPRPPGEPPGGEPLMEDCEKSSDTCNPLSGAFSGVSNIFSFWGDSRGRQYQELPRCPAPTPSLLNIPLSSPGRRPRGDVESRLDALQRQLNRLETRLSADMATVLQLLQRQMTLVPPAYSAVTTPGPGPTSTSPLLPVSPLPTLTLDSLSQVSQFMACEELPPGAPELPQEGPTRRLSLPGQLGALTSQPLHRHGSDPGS

[6] = Tmax in cynomolgus monkey at 20 mg/kg, po measured up to 24 hrs by LC-MS/MS analysis; type: ADME, organism-based, Macaca fascicularis; conditions: in vivo
[7] = Oral bioavailability in Beagle dog at 10 mg/kg measured up to 24 hrs by LC-MS/MS analysis; type: ADME, organism-based, Canis lupus familiaris; conditions: in vivo
CYP3A4 [8] = target: T2, CYP3A4; assay: Inhibition of CYP3A4 in human liver microsome using midazolam as substrate at 10 uM preincubated for 5 mins followed by NADPH addition and measured after 10 mins by LC-MS/MS analysis relative to control; type: ADME; conditions: human liver microsomes, probe midazolam, time 15 min
[9] = Metabolic stability in dog liver microsome assessed as half life at 1 uM measured up to 60 mins in presence of NADPH by LC-MS/MS analysis; type: ADME, Canis lupus familiaris; conditions: liver microsomes
[10] = AUClast in cynomolgus monkey at 20 mg/kg, po measured up to 24 hrs by LC-MS/MS analysis; type: ADME, organism-based, Macaca fascicularis; conditions: in vivo
[11] = Inhibition of LPS-stimulated IL-6 release in human PBMC cells; type: functional, cell-based
[12] = Metabolic stability in human liver microsome assessed as half life at 1 uM measured up to 60 mins in presence of NADPH by LC-MS/MS analysis; type: ADME; conditions: liver microsomes
[13] = AUClast in Beagle dog at 2 mg/kg, iv measured up to 24 hrs by LC-MS/MS analysis; type: ADME, organism-based, Canis lupus familiaris; conditions: in vivo
Mus musculus [14] = assay: Anti-psoriasis effect in IMQ-induced C57BL/6 mouse assessed as reduction in ear thickness at 100 mg/kg administered topically twice daily for 6 days and measured after 24 hrs; type: functional, organism-based; conditions: time 7.0 day
[15] = Metabolic stability rat hepatocyte assessed as half life at 1 uM measured up to 120 mins by LC-MS/MS analysis; type: ADME, cell-based; conditions: hepatocytes
[16] = Tmax in male C57BL/6 mouse at 10 mg/kg, po measured up to 24 hrs by LC-MS/MS analysis; type: ADME, organism-based; conditions: in vivo
[17] = target: Protein cereblon/Interleukin-1 receptor-associated kinase 4 (Mus musculus) (UniProt Q8C7D2+Q8R4K2); assay: In-vivo PROTAC activity at C57BL/6 mouse assessed as reduction in IRAK4 level in spleen at 100 mg/kg, po measured after 24 hrs by Western blot analysis; type: functional, organism-based; set-up: scale not given: the % may be the effect or the level left
[18] = Cmax in Beagle dog at 2 mg/kg, iv measured up to 24 hrs by LC-MS/MS analysis; type: ADME, organism-based, Canis lupus familiaris; conditions: in vivo
Mus musculus [19] = assay: Anti-psoriasis effect in IMQ-induced C57BL/6 mouse assessed as reduction in erythema intensity administered topically twice daily for 6 days and measured after 24 hrs; type: functional, organism-based; conditions: dose 10-100 mg/kg, time 7.0 day
[20] = Half life in male C57BL/6 mouse at 2 mg/kg, iv measured up to 24 hrs by LC-MS/MS analysis; type: ADME, organism-based; conditions: in vivo
[21] = Volume of distribution at steady state in male C57BL/6 mouse at 2 mg/kg, iv measured up to 24 hrs by LC-MS/MS analysis; type: ADME, organism-based; conditions: in vivo, read-out: Vdss
[22] = target: Protein cereblon/Sal-like protein 4 (Homo sapiens) (UniProt Q96SW2+Q9UJQ4); assay: PROTAC activity at CRBN/SALL4 in human PBMC cells assessed as induction of SALL4 degradation at 1 uM by Western blot analysis; type: cell-based
Protein cereblon/Sal-like protein 4 (Homo sapiens), sequence (Q96SW2 whole entry, looked up): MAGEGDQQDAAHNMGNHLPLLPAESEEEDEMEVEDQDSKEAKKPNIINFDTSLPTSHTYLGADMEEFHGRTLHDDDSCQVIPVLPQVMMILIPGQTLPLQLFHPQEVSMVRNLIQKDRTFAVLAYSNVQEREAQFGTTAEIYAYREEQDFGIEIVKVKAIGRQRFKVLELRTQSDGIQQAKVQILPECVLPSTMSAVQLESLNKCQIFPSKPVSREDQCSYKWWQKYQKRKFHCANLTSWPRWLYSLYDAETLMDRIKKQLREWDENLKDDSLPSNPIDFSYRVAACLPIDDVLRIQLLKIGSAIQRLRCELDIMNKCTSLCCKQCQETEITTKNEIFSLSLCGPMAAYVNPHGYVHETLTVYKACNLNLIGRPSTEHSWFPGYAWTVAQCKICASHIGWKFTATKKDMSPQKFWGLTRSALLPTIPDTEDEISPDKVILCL
Protein cereblon/Sal-like protein 4 (Homo sapiens), sequence (Q9UJQ4 whole entry, looked up): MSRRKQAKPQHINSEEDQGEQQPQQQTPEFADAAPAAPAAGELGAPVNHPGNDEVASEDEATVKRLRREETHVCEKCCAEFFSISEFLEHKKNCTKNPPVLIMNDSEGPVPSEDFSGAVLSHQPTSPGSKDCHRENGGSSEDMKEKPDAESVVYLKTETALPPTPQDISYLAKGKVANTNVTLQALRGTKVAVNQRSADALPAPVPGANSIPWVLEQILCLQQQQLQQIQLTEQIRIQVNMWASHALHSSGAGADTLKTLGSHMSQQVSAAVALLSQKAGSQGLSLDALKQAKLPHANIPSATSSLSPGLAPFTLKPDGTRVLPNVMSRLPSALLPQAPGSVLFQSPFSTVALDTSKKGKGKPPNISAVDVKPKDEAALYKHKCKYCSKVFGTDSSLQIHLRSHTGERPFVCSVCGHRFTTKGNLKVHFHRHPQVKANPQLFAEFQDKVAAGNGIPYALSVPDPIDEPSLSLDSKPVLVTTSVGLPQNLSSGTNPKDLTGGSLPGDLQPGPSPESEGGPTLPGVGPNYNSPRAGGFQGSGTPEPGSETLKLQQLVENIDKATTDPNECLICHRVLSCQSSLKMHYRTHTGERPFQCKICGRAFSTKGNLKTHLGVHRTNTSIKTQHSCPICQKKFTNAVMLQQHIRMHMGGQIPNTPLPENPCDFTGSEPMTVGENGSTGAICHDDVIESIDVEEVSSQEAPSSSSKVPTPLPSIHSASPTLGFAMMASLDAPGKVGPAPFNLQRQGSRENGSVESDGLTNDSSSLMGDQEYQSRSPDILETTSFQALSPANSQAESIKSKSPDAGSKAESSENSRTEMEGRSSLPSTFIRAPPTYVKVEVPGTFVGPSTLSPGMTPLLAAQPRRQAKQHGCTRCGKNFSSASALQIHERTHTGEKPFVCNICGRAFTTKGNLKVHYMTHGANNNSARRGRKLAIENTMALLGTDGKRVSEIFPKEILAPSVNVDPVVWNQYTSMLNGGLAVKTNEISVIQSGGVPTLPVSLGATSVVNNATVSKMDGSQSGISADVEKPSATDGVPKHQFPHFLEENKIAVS

[23] = Cmax in cynomolgus monkey at 20 mg/kg, po measured up to 24 hrs by LC-MS/MS analysis; type: ADME, organism-based, Macaca fascicularis; conditions: in vivo
[24] = Oral bioavailability in cynomolgus monkey at 20 mg/kg measured up to 24 hrs by LC-MS/MS analysis; type: ADME, organism-based, Macaca fascicularis; conditions: in vivo
[25] = Half life in male C57BL/6 mouse at 10 mg/kg, po measured up to 24 hrs by LC-MS/MS analysis; type: ADME, organism-based; conditions: in vivo
[26] = Cmax in Sprague-Dawley rat at 10 mg/kg, po measured up to 24 hrs by LC-MS/MS analysis; type: ADME, organism-based; conditions: in vivo

What does the source list for `Cn1c(=O)n(C2CCC(=O)NC2=O)c2cccc(C#CCO[C@H]3CC[C@H](CN4CCC5(CC4)Cc4cc(NC(=O)c6coc7cccnc67)c(N6CCC(CO)CC6)cc4O5)CC3)c21` (some centres not stated)?
clearance [1]: 9.2 mL/min/kg; AUC(0-t) at 24 h [2]: 23400 ng·h/mL; DC50 [3]: 3.57 nM; inhibition at 10 min, 10 µM (CYP3A4 [4]): 10.2%; Activity (Mus musculus [5]): Active; inhibition at 3 µM (hERG (KCNH2)): 53%; Tmax [6]: 6 h; bioavailability [7]: 39%; inhibition at 10 min, 10 µM (CYP3A4 [8]): 19.1%; half-life at 1 µM [9]: > 3.07 h; AUC(0-t) at 24 h [10]: 4000 ng·h/mL; IC50 [11]: 16.4 nM; half-life at 1 µM [12]: > 3.07 h; AUC(0-t) at 24 h [13]: 2670 ng·h/mL; Activity (Mus musculus [14]): Active; half-life at 1 µM [15]: 2.65 h; Tmax [16]: 2.67 h; Activity [17]: > 80%; Cmax [18]: 599 ng/mL; Activity (Mus musculus [19]): Dose-dependent-effect; half-life [20]: 3.12 h; Vd [21]: 0.88 L/kg; Activity [22]: inactive; Cmax [23]: 229 ng/mL; bioavailability [24]: 11%; half-life [25]: 4.34 h; Cmax [26]: 613 ng/mL

From ChEMBL document CHEMBL6182949 (J Med Chem, 2025)
